Test results: US20250101041A1, “POSITIVE ALLOSTERIC MODULATORS OF THE MUSCARINIC ACETYLCHOLINE RECEPTOR M4” (Vanderbilt University, priority 2022, published 2025)

Biological target: T1, human mAChR M4 (Homo sapiens, UniProt P08173)
T1 construct: expressed in transfected cells; host or cells: CHO-K1 (American Type Culture Collection), stably expressing hM4 and Gqi5
T1 sequence (P08173 1-479): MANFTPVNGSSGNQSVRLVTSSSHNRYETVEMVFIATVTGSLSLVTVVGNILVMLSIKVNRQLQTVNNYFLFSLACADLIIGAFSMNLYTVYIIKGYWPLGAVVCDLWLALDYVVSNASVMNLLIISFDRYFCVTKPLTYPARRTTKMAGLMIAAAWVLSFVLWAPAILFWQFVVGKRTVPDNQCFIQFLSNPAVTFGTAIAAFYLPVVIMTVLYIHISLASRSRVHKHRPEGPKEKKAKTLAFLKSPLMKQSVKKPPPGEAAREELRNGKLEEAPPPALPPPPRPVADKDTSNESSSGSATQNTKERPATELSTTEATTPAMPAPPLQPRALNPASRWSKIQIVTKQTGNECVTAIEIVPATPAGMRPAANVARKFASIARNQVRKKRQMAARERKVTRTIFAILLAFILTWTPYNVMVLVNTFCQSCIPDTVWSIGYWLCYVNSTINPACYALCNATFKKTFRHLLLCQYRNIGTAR
Assay: mAChR M4 cell-based functional assay: calcium mobilization (Fluo-4, FDSS), potentiation of EC20 acetylcholine response in hM4-Gqi5 CHO-K1 cells
Conditions: human M4; for Emax at 30 µM: CHO-K1, % ACh maximum at 30 μM; for EC50: potentiation of EC20 acetylcholine response, calcium mobilization
How it was run: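 Readout is the fluorescence-ratio rise at 1 Hz on FDSS, with PAM activity taken as concentration-dependent enhancement of the EC20 acetylcholine response, fitted four-parameter for EC50/Emax. hM4-Gqi5 CHO-K1 cells carried Fluo-4 AM dye; test compounds (11 points, 1:3) preceded EC20 acetylcholine additions at 144 s and 230 s.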

Compound	Emax at 30 µM	EC50
COc1ccsc1-c1cnc2c(c1)CN(c1nn3c(=O)cc(C)nc3cc1C)CC2 [Compound 1-298, 7-(3-(3-methoxythiophen-2-yl)-7,8-dihydro-1,6-naphthyridin-6(5H)-yl)-2,8-dimethyl-4H-pyrimido[1,2-b]pyridazin-4-one]	85%	83 nM
Cc1cc(=O)n2nc(N3CCc4ncc(-c5ccc(CO)s5)cc4C3)c(C)cc2n1 [Compound 1-299, 7-(3-(5-(hydroxymethyl)thiophen-2-yl)-7,8-dihydro-1,6-naphthyridin-6(5H)-yl)-2,8-dimethyl-4H-pyrimido[1,2-b]pyridazin-4-one]	93%	41 nM
Cc1cc(=O)n2nc(N3CCc4ncc(-c5ccsc5)cc4C3)c(C)cc2n1 [Compound 1-300, 2,8-dimethyl-7-(3-(thiophen-3-yl)-7,8-dihydro-1,6-naphthyridin-6(5H)-yl)-4H-pyrimido[1,2-b]pyridazin-4-one]	87%	122 nM
Cc1cc(=O)n2nc(N3CCc4ncc(-c5ccco5)cc4C3)c(C)cc2n1 [Compound 1-301, 7-(3-(furan-2-yl)-7,8-dihydro-1,6-naphthyridin-6(5H)-yl)-2,8-dimethyl-4H-pyrimido[1,2-b]pyridazin-4-one]	91%	111 nM
Cc1cc(=O)n2nc(N3CCc4ncc(-c5ccc(C)o5)cc4C3)c(C)cc2n1 [Compound 1-302, 2,8-dimethyl-7-(3-(5-methylfuran-2-yl)-7,8-dihydro-1,6-naphthyridin-6(5H)-yl)-4H-pyrimido[1,2-b] pyridazin-4-one]	85%	188 nM
COc1ccsc1-c1cnc2c(c1)CN(c1nn3c(=O)cc(C)nc3c(C)c1C)CC2 [Compound 1-303, 7-(3-(3-methoxythiophen-2-yl)-7,8-dihydro-1,6-naphthyridin-6(5H)-yl)-2,8,9-trimethyl-4H-pyrimido[1,2-b]pyridazin-4-one]	96%	192 nM
Cc1cc(=O)n2nc(N3CCc4ncc(-c5ccsc5)cc4C3)c(C)c(C)c2n1 [Compound 1-304, 2,8,9-trimethyl-7-(3-(thiophen-3-yl)-7,8-dihydro-1,6-naphthyridin-6(5H)-yl)-4H-pyrimido[1,2-b]pyridazin-4-one]	89%	169 nM
Cc1cc(=O)n2nc(N3CCc4ncc(-c5ccc(C)o5)cc4C3)c(C)c(C)c2n1 [Compound 1-305, 2,8,9-trimethyl-7-(3-(5-methylfuran-2-yl)-7,8-dihydro-1,6-naphthyridin-6(5H)-yl)-4H-pyrimido[1,2-b] pyridazin-4-one]	88%	315 nM
Cc1c(N2CCc3ncc(-c4cccc(F)c4)cc3C2)nn2c(=O)cc(C(F)F)nc2c1C [Compound 1-306, 2-(difluoromethyl)-7-(3-(3-fluorophenyl)-7,8-dihydro-1,6-naphthyridin-6(5H)-yl)-8,9-dimethyl-4H-pyrimido[1,2-b]pyridazin-4-one]	89%	451 nM
Cc1cnccc1-c1cnc2c(c1)CN(c1nn3c(=O)cc(C(F)F)nc3c(C)c1C)CC2 [Compound 1-307, 2-(difluoromethyl)-8,9-dimethyl-7-(3-(3-methylpyridin-4-yl)-7,8-dihydro-1,6-naphthyridin-6(5H)-yl)-4H-pyrimido[1,2-b]pyridazin-4-one]	88%	69 nM
Cc1c(N2CCc3ncc(-c4cnn(CCN(C)C)c4)cc3C2)nn2c(=O)cc(C(F)F)nc2c1C [Compound 1-308, 2-(difluoromethyl)-7-(3-(1-(2-(dimethylamino)ethyl)-1H-pyrazol-4-yl)-7,8-dihydro-1,6-naphthyridin-6(5H)-yl)-8,9-dimethyl-4H-pyrimido[1,2-b]pyridazin-4-one]	78%	313 nM
Cc1c(N2CCc3ncc(-c4cnn(C5COC5)c4)cc3C2)nn2c(=O)cc(C(F)F)nc2c1C [Compound 1-309, 2-(difluoromethyl)-8,9-dimethyl-7-(3-(1-(oxetan-3-yl)-1H-pyrazol-4-yl)-7,8-dihydro-1,6-naphthyridin-6(5H)-yl)-4H-pyrimido[1,2-b]pyridazin-4-one]	88%	203 nM
Cc1nn(C)c(C)c1-c1cnc2c(c1)CN(c1nn3c(=O)cc(C(F)F)nc3c(C)c1C)CC2 [Compound 1-310, 2-(difluoromethyl)-8,9-dimethyl-7-(3-(1,3,5-trimethyl-1H-pyrazol-4-yl)-7,8-dihydro-1,6-naphthyridin-6(5H)-yl)-4H-pyrimido[1,2-b]pyridazin-4-one]	86%	136 nM
COc1ccsc1-c1cnc2c(c1)CN(c1nn3c(=O)cc(C(F)F)nc3c(C)c1C)CC2 [Compound 1-311, 2-(difluoromethyl)-7-(3-(3-methoxythiophen-2-yl)-7,8-dihydro-1,6-naphthyridin-6(5H)-yl)-8,9-dimethyl-4H-pyrimido[1,2-b]pyridazin-4-one]	79%	1270 nM
Cc1c(N2CCc3ncc(-c4cccs4)cc3C2)nn2c(=O)cc(C(F)F)nc2c1C [Compound 1-312, 2-(difluoromethyl)-8,9-dimethyl-7-(3-(thiophen-2-yl)-7,8-dihydro-1,6-naphthyridin-6(5H)-yl)-4H-pyrimido[1,2-b]pyridazin-4-one]	82%	158 nM
COCc1cc(=O)n2nc(N3CCc4ncc(C(F)(F)F)cc4C3)c(C)cc2n1 [Compound 1-313, 2-(methoxymethyl)-8-methyl-7-(3-(trifluoromethyl)-7,8-dihydro-1,6-naphthyridin-6(5H)-yl)-4H-pyrimido[1,2-b]pyridazin-4-one]	96%	503 nM
COCc1cc(=O)n2nc(N3CCc4ncc(-c5ccc(C)nc5)cc4C3)c(C)cc2n1 [Compound 1-314, 2-(methoxymethyl)-8-methyl-7-(3-(6-methylpyridin-3-yl)-7,8-dihydro-1,6-naphthyridin-6(5H)-yl)-4H-pyrimido[1,2-b]pyridazin-4-one]	96%	109 nM
Cc1cc2nccc(=O)n2nc1N1CCc2ncc(-c3ccc(OC(F)F)nc3)cc2C1 [Compound 1-315, 7-(3-(6-(difluoromethoxy)pyridin-3-yl)-7,8-dihydro-1,6-naphthyridin-6(5H)-yl)-8-methyl-4H-pyrimido[1,2-b]pyridazin-4-one]	71%	448 nM
Cc1cc2nccc(=O)n2nc1N1CCc2ncc(-c3ccc(C#N)nc3)cc2C1 [Compound 1-316, 5-(6-(8-methyl-4-oxo-4H-pyrimido[1,2-b]pyridazin-7-yl)-5,6,7,8-tetrahydro-1,6-naphthyridin-3-yl)picolinonitrile]	71%	
Cc1cc(OC(F)F)ncc1-c1cnc2c(c1)CN(c1nn3c(=O)ccnc3cc1C)CC2 [Compound 1-317, 7-(3-(6-(difluoromethoxy)-4-methylpyridin-3-yl)-7,8-dihydro-1,6-naphthyridin-6(5H)-yl)-8-methyl-4H-pyrimido[1,2-b]pyridazin-4-one]	70%	716 nM
Cc1cc2nccc(=O)n2nc1N1CCc2ncc(-c3ccc(F)nc3F)cc2C1 [Compound 1-318, 7-(3-(2,6-difluoropyridin-3-yl)-7,8-dihydro-1,6-naphthyridin-6(5H)-yl)-8-methyl-4H-pyrimido [1,2-b]pyridazin-4-one]	55%	2400 nM
Cc1cc2nccc(=O)n2nc1N1CCc2ncc(-c3cnccc3C#N)cc2C1 [Compound 1-319, 3-(6-(8-methyl-4-oxo-4H-pyrimido[1,2-b]pyridazin-7-yl)-5,6,7,8-tetrahydro-1,6-naphthyridin-3-yl)isonicotinonitrile]	34%	2640 nM
COCc1cc(=O)n2nc(N3CCc4ncc(-c5cc(F)ncc5F)cc4C3)c(C)cc2n1 [Compound 1-320, 7-(3-(2,5-difluoropyridin-4-yl)-7,8-dihydro-1,6-naphthyridin-6(5H)-yl)-2-(methoxymethyl)-8-methyl-4H-pyrimido[1,2-b] pyridazin-4-one]	77%	1470 nM
Cc1cc2nccc(=O)n2nc1N1CCc2ncc(-c3cn(C)nn3)cc2C1 [Compound 1-321, 8-methyl-7-(3-(1-methyl-1H-1,2,3-triazol-4-yl)-7,8-dihydro-1,6-naphthyridin-6(5H)-yl)-4H-pyrimido[1,2-b]pyridazin-4-one]	61%	2180 nM
COCc1cc(=O)n2nc(N3CCc4ncc(-c5ccc(F)nc5)cc4C3)c(C)cc2n1 [Compound 1-322, 7-(3-(6-fluoropyridin-3-yl)-7,8-dihydro-1,6-naphthyridin-6(5H)-yl)-2-(methoxymethyl)-8-methyl-4H-pyrimido[1,2-b] pyridazin-4-one]	82%	374 nM
Cc1cc2nccc(=O)n2nc1N1CCc2ncc(-c3cnc(C)n3C)cc2C1 [Compound 1-323, 7-(3-(1,2-dimethyl-1H-imidazol-5-yl)-7,8-dihydro-1,6-naphthyridin-6(5H)-yl)-8-methyl-4H-pyrimido[1,2-b]pyridazin-4-one]	71%	1040 nM
